ChEMBL document CHEMBL4190375, “Current Insights of BRAF Inhibitors in Cancer” (J Med Chem, 2018)
Blank lines part the entries; values can stand above or below the molecule they belong to.

Experiments:
[1] = molecular target: T1, Serine/threonine-protein kinase B-raf (Homo sapiens, UniProt P15056, V600E)
[2] = tested on: A-375; experiment: Cytotoxicity against human A375 cells harboring BRAF V600E mutant after 72 hrs by CellTiter-Glo assay; type: functional, cell-based; conditions: A-375, 72 h
[3] = molecular target: T1, Serine/threonine-protein kinase B-raf; remark: listed apart in the source
[4] = molecular target: T2, RAF proto-oncogene serine/threonine-protein kinase (Homo sapiens, UniProt P04049); experiment: Inhibition of CRAF (unknown origin)
T2 sequence (P04049 whole entry): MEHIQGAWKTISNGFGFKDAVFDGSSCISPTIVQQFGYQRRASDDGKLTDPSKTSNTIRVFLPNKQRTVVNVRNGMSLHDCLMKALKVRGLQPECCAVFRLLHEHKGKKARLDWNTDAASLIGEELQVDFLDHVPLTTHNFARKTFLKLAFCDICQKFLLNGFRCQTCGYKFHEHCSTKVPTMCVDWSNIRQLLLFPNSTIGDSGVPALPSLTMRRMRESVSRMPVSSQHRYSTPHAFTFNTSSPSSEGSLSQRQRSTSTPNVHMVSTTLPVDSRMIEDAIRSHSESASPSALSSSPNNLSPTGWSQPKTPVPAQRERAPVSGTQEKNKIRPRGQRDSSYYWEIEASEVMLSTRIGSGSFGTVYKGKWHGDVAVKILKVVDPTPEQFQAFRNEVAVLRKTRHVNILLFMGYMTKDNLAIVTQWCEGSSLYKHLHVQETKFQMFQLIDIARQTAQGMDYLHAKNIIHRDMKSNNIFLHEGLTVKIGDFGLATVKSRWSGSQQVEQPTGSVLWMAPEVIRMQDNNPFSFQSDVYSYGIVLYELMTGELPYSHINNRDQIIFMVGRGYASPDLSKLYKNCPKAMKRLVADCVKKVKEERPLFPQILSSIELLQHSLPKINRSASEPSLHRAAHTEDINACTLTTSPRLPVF

[5] = molecular target: T3, Serine/threonine-protein kinase B-raf (Homo sapiens, UniProt P15056)
T3 sequence (P15056 whole entry): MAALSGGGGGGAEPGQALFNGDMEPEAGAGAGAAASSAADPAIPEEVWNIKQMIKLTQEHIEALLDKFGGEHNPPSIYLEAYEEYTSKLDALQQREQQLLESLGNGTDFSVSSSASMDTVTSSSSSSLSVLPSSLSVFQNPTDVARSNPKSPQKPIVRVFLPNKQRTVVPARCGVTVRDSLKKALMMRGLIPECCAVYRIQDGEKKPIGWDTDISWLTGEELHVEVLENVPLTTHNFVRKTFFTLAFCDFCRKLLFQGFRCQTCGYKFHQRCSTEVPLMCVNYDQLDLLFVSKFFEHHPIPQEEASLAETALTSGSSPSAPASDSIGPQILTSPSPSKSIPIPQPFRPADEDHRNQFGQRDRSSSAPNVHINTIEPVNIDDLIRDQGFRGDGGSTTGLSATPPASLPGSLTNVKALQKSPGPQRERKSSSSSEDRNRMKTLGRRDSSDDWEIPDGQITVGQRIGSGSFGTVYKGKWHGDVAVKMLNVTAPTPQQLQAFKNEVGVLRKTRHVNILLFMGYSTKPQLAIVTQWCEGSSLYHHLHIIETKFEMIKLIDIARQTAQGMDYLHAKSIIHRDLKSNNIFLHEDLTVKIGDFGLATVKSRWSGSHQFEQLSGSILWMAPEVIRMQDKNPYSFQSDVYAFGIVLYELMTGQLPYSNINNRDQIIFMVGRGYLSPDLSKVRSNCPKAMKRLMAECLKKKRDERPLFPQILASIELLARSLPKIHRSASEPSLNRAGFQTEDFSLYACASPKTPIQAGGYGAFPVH

[6] = molecular target: T4, Serine/threonine-protein kinase A-Raf (Homo sapiens, UniProt P10398); experiment: Inhibition of ARAF (unknown origin)
T4 sequence (P10398 whole entry): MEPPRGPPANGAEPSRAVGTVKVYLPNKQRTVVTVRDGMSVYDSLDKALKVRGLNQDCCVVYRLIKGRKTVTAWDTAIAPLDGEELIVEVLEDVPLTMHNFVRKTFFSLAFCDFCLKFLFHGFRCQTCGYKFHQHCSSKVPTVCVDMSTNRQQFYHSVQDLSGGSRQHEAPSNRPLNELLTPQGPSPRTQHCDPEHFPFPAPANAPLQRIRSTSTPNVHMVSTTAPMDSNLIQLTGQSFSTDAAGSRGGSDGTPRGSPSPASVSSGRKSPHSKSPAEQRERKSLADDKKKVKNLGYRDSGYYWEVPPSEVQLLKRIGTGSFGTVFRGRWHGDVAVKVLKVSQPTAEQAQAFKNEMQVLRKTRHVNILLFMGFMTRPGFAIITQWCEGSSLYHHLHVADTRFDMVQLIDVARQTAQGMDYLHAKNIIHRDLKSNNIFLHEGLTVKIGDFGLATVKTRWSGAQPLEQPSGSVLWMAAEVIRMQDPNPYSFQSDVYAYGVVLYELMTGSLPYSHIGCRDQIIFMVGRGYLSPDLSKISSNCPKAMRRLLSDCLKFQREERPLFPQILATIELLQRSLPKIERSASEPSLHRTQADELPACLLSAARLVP

[7] = Half life in human; type: ADME, organism-based; conditions: in vivo
[8] = molecular target: T1, Serine/threonine-protein kinase B-raf; experiment: Inhibition of BRAF V600E mutant in human A375 cells assessed as reduction in ERK phosphorylation; type: cell-based
[9] = molecular target: T1, Serine/threonine-protein kinase B-raf; experiment: Inhibition of BRAF V600E mutant (unknown origin)
[10] = tested on: A-375; experiment: Cytotoxicity against human A375 cells harboring BRAF V600E mutant after 72 hrs by alamar blue assay; type: functional, cell-based; conditions: A-375, 72 h
[11] = molecular target: T2, RAF proto-oncogene serine/threonine-protein kinase; experiment: Inhibition of CRAF (unknown origin) by Z'-LYTE assay
[12] = molecular target: T3, Serine/threonine-protein kinase B-raf; experiment: Inhibition of wild type BRAF (unknown origin) by Z'-LYTE assay
[13] = molecular target: T1, Serine/threonine-protein kinase B-raf; experiment: Inhibition of BRAF V600E mutant (unknown origin) by Z'-LYTE assay
[14] = molecular target: T1, Serine/threonine-protein kinase B-raf; experiment: Inhibition of BRAF V600E mutant in human A375 cells assessed as reduction in ERK phosphorylation after 2 hrs by ELISA; type: cell-based
[15] = tested on: A-375; experiment: Cytotoxicity against human A375 cells harboring BRAF V600E mutant after 48 hrs by CellTiter-Glo assay; type: functional, cell-based; conditions: A-375, 48 h
[16] = tested on: A-375; experiment: Cytotoxicity against human A375 cells harboring BRAF V600E mutant after 96 hrs by CellTiter-Glo assay; type: functional, cell-based; conditions: A-375, 96 h
[17] = tested on: WM 266-4; experiment: Cytotoxicity in human WM266.4 cells after 72 hrs by CellTiter-Glo assay; type: functional, cell-based; conditions: WM 266-4, 72 h
[18] = Tmax in human; type: ADME, organism-based; conditions: in vivo
[19] = Cytotoxicity against human PLGA cells harboring BRAF V600E mutant after 96 hrs by CellTiter-Glo assay; type: functional, cell-based
[20] = tested on: SK-MEL-28; experiment: Cytotoxicity against human SK-MEL-28 cells after 72 hrs by CellTiter-Glo assay; type: functional, cell-based; conditions: SK-MEL-28, 72 h
[21] = molecular target: T1, Serine/threonine-protein kinase B-raf; experiment: biochemical
[22] = molecular target: T1, Serine/threonine-protein kinase B-raf; remark: listed apart in the source
[23] = tested on: A-375; experiment: Cytotoxicity against human A375 cells harboring BRAF V600E mutant; type: functional, cell-based
[24] = Cytotoxicity against human HCC364 cells harboring p61 V600E mutant; type: functional, cell-based
[25] = tested on: SK-MEL-30; experiment: cells; conditions: Homo sapiens, SK-MEL-30, 48 h
[26] = molecular target: T3, Serine/threonine-protein kinase B-raf; experiment: Inhibition of BRAF in human Jurkat T cells assessed as reduction in ERK phosphorylation; type: cell-based
[27] = tested on: SK-MEL19; experiment: Cytotoxicity against human SK-MEL-19 cells harboring BRAF mutant after 3 days; type: functional, cell-based; conditions: SK-MEL19, 72 h

T1 sequence (P15056 2-766 V600E limits assumed): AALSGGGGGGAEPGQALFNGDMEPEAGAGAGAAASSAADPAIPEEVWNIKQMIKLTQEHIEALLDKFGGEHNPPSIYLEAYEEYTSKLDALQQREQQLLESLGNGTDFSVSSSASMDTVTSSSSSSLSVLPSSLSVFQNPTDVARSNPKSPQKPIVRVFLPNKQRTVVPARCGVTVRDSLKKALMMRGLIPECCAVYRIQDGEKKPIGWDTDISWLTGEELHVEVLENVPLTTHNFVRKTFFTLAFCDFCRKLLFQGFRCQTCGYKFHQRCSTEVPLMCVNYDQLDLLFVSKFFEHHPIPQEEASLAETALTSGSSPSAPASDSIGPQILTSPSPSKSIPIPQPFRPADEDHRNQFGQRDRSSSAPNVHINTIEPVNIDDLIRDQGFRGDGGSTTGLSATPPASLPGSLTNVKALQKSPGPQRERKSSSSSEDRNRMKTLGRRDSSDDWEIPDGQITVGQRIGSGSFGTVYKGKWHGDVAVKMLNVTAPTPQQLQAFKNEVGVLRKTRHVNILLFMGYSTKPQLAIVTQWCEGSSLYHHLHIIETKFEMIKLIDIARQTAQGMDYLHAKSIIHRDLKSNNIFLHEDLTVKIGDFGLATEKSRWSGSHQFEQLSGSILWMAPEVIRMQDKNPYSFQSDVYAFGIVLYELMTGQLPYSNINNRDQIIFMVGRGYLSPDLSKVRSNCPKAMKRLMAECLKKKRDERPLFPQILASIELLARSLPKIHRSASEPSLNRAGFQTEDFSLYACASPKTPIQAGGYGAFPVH

IC50 [1]: 23 nM | IC50 [3]: 64 nM | IC50 [4]: 7 nM | IC50 [5]: 32 nM | IC50 [6]: 5.6 nM
SMILES: O=C1CCc2c(Oc3ccc4c(c3)[C@H]3[C@@H](O4)[C@@H]3c3nc4ccc(C(F)(F)F)cc4[nH]3)ccnc2N1
IC50 [2]: 200 nM

SMILES: CC(C)(N)c1cc(C(=O)NC2CCc3ccc(Oc4ccnc5c4CCC(=O)N5)cc3C2)cc(C(F)(F)F)c1 (stereo not given)
IC50 [2]: 200 nM

half-life [7]: 67 h
SMILES: CNc1ncc2cc(-c3cc(NC(=O)NCCC(C)(C)C)c(F)cc3C)c(C)nc2n1 [LY-3009120]

IC50 [8]: 5 nM | IC50 [9]: 15 nM
SMILES: CSc1cc(Oc2ccnc3[nH]c(=O)cnc23)ccc1NC(=O)Nc1cc(C(C)(C)C)nn1-c1ccccc1
IC50 [2]: 10 nM

SMILES: CCCS(=O)(=O)Nc1ccc(F)c(-n2cc(-c3cncnc3)c3nc(N(C)C4CCN(CC)CC4)ccc32)c1F [XP-102]
IC50 [10]: 0.9 nM | IC50 [11]: 0.6 nM | IC50 [12]: 0.8 nM | IC50 [13]: 0.4 nM | IC50 [14]: 0.5 nM

SMILES: CN(C)CCOc1ccc(-c2nc(-c3ccncc3)c(-c3ccc4c(c3)CC/C4=N\O)[nH]2)cc1 [SB590885]
IC50 [15]: 370 nM

SMILES: CCCS(=O)(=O)Nc1ccc(F)c(C(=O)c2c[nH]c3ncc(Cl)cc23)c1F [PLX-4720]
IC50 [2]: 500 nM

SMILES: OCCn1cc(-c2ccc3c(c2)CC/C3=N\O)c(-c2ccncc2)n1
EC50 [16]: > 500 nM

SMILES: CC(C)(C)c1cc(NC(=O)Nc2ccc(Oc3ccnc4[nH]c(=O)cnc34)cc2F)n(-c2ccccc2)n1
IC50 [8]: 5 nM | IC50 [17]: 15 nM | IC50 [9]: 40 nM

Tmax [18]: 2 h
SMILES: C[C@H](NC(=O)c1ncnc(N)c1Cl)c1ncc(C(=O)Nc2cc(C(F)(F)F)c(Cl)cn2)s1
IC50 [19]: 248 nM

SMILES: CC(C)(C)c1nc(-c2cccc(NS(=O)(=O)c3c(F)cccc3F)c2F)c(-c2ccnc(N)n2)s1 [DABRAFENIB]
IC50 [20]: 43 nM

SMILES: CCN(C)S(=O)(=O)Nc1ccc(F)c(C(=O)c2c[nH]c3ncc(-c4cnc(C5CC5)nc4)cc23)c1F
IC50 [21]: 4.2 nM | IC50 [22]: 16 nM | IC50 [23]: 170 nM

SMILES: O=C(c1c(F)ccc(NS(=O)(=O)N2CC[C@H](F)C2)c1F)c1c[nH]c2ncc(-c3cnc(C4CC4)nc3)cc12
IC50 [24]: 800 nM | IC50 [21]: 3.8 nM | IC50 [22]: 3.5 nM

IC50 [25]: 3900 nM
SMILES: CNC(=O)c1cc(Oc2ccc(NC(=O)Nc3ccc(Cl)c(C(F)(F)F)c3)cc2)ccn1 [SORAFENIB]

IC50 [26]: 2000 nM | IC50 [9]: 6 nM
SMILES: COC(=O)Nc1nc2cc(C3(O)c4ccccc4C(=O)N3c3cc(Cl)ccc3C)ccc2[nH]1 (stereo not given) [XL-281]
IC50 [27]: 200 nM
